Test results reported in ChEMBL document CHEMBL2417426, “Synthesis of quaternary α-amino acid-based arginase inhibitors via the Ugi reaction” (Bioorg Med Chem Lett, 2013).

How the values were obtained:
[1] = Bioavailability in ip dosed rat; format: ADME, organism-based; details: in vivo
Arginase-1 = biological target: T1, Arginase-1 (Homo sapiens, UniProt P05089); test: Inhibition of human arginase-1 assessed as L-arginine conversion to L-ornithine measured as urea level after 1 hr by colorimetric assay
T1 sequence (P05089 whole entry): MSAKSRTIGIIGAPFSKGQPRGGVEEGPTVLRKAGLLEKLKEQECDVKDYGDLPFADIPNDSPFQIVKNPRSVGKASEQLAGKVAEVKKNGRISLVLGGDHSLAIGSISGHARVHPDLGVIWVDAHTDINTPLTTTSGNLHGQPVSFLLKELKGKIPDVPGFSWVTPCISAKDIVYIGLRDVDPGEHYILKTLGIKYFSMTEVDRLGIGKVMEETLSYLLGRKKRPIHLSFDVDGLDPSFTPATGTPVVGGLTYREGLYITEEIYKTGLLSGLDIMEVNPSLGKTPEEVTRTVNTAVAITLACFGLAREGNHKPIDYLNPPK

[2] = biological target: T2, Arginase-2, mitochondrial (Homo sapiens, UniProt P78540); test: Inhibition of human arginase-2 assessed as L-arginine conversion to L-ornithine measured as urea level after 1 hr by colorimetric assay
T2 sequence (P78540 whole entry): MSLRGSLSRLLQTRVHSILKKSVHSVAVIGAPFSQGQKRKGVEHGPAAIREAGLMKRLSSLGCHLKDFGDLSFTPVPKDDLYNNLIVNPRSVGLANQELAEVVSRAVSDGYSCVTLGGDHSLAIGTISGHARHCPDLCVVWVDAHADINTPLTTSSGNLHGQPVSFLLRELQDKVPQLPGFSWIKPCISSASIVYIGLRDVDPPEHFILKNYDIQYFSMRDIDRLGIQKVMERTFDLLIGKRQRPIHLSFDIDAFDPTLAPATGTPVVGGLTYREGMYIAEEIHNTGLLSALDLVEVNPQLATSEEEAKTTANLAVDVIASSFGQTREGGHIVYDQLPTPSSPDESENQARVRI

[3] = Octanol-phosphate buffer partition coefficient, log D of the compound by shake-flask method; format: physicochemical
Rattus norvegicus [4] = test: AUC (0 to infinity) in iv dosed rat; format: ADME, organism-based, Plasma; set-up: route intravenous, time infinity; details: in vivo
Rattus norvegicus [5] = test: AUC (0 to t) in iv dosed rat; format: ADME, organism-based, Plasma; details: in vivo
[6] = Clearance in iv dosed rat; format: ADME, organism-based; details: in vivo
Plasma = test: Initial plasma concentration in rat; format: ADME
[7] = Oral bioavailability in rat; format: ADME, organism-based; details: in vivo
[8] = Mean residence time in rat; format: ADME, organism-based; details: in vivo
[9] = Half life in iv dosed rat; format: ADME, organism-based; details: in vivo
[10] = Volume of distribution at steady state in iv dosed rat; format: ADME, organism-based; details: in vivo, read-out: Vdss

Compound | bioavailability [1] | IC50 (Arginase-1) | IC50 [2] | logD [3] | AUC (Rattus norvegicus [4]) | AUCt (Rattus norvegicus [5]) | clearance [6] | C0 (Plasma) | bioavailability [7] | MRT [8] | half-life [9] | Vd [10]
NC(CCCCB(O)O)(C(=O)O)C1CC2CCC(C1)N2Cc1ccc(F)c(F)c1 (racemic) | < 5% | 0.022 µM | 0.033 µM | – | – | – | – | – | – | – | – | –
NC(CCCCB(O)O)(C(=O)O)C1CC2CCC(C1)N2 (racemic) | < 5% | 0.08 µM | 0.085 µM | – | – | – | – | – | – | – | – | –
NC(CCCCB(O)O)(C(=O)O)C1CC2CCC(C1)N2Cc1ccc(Cl)cc1 (racemic) | < 5% | 0.017 µM | 0.03 µM | – | – | – | – | – | – | – | – | –
NC(CCCCB(O)O)(C(=O)O)C1CC2CCC(C1)N2Cc1ccccc1 (racemic) | < 5% | 0.024 µM | 0.047 µM | – | – | – | – | – | – | – | – | –
NC(CCCCB(O)O)(C(=O)O)C1CCN(CCCc2ccc(C(F)(F)F)cc2)CC1 (racemic) | < 5% | 0.12 µM | 0.07 µM | – | – | – | – | – | – | – | – | –
NC(CCCCB(O)O)(C(=O)O)C1CCNCC1 (racemic) | < 5% | 0.38 µM | 0.64 µM | -2.8 | – | – | – | – | – | – | – | –
NC(CCCCB(O)O)(C(=O)O)C1CCN(Cc2ccccc2)CC1 (racemic) | < 5% | 0.2 µM | 0.23 µM | -0.4 | – | – | – | – | – | – | – | –
NC(CCCCB(O)O)(C(=O)O)C1CC2CCC(C1)N2Cc1ccc(Cl)c(Cl)c1 (racemic) | > 50% | 0.021 µM | 0.023 µM | 2.4 | 0.994 kg·h/L | 0.951 kg·h/L | 16.8 mL/min/kg | 4770 ng/mL | 0.25% | 0.912 h | 3.12 h | 0.918 L/kg
NC(CCCCB(O)O)(C(=O)O)C1CCN(Cc2ccc(Cl)cc2)CC1 (racemic) | < 5% | 0.19 µM | 0.24 µM | 0.3 | – | – | – | – | – | – | – | –

More lines, main results first:

bioavailability [1] | IC50 (Arginase-1) | IC50 [2] | logD [3] | Compound | AUC (Rattus norvegicus [4]) | AUCt (Rattus norvegicus [5]) | clearance [6] | C0 (Plasma) | bioavailability [7] | MRT [8] | half-life [9] | Vd [10]
< 5% | 0.21 µM | 0.33 µM | – | NC(CCCCB(O)O)(C(=O)O)C1CCN(CCc2ccc(Cl)cc2Cl)CC1 (racemic) | – | – | – | – | – | – | – | –
< 5% | 6.65 µM | 4.65 µM | – | Cc1ccc(S(=O)(=O)N2CCC(C(N)(CCCCB(O)O)C(=O)O)CC2)cc1 (racemic) | – | – | – | – | – | – | – | –
< 5% | 0.1 µM | 0.05 µM | 1.2 | NC(CCCCB(O)O)(C(=O)O)C1CCN(CCCc2ccc(Cl)cc2Cl)CC1 (racemic) | – | – | – | – | – | – | – | –
< 5% | 0.18 µM | 0.23 µM | -1.1 | CC(C)CCN1CCC(C(N)(CCCCB(O)O)C(=O)O)CC1 (racemic) | – | – | – | – | – | – | – | –
> 50% | 0.2 µM | 0.29 µM | 1.5 | NC(CCCCB(O)O)(C(=O)O)C1CCN(Cc2ccc(Cl)c(Cl)c2)CC1 (racemic) | 2.12 kg·h/L | 2.05 kg·h/L | 7.87 mL/min/kg | 4720 ng/mL | 4.8% | 2.14 h | 7.83 h | 1.51 L/kg
– | 1.47 µM | 2.15 µM | – | N[C@@H](CCCCB(O)O)C(=O)O | – | – | – | – | – | – | – | –
< 5% | 0.33 µM | 1.12 µM | – | NC(CCCCB(O)O)(C(=O)O)C1CCN(C(=S)NCc2ccc(Cl)cc2)CC1 (racemic) | – | – | – | – | – | – | – | –
< 5% | 0.72 µM | 1.1 µM | 0.5 | NC(CCCCB(O)O)(C(=O)O)C1CCN(C(=O)Nc2ccc(Cl)cc2)CC1 (racemic) | – | – | – | – | – | – | – | –
